Columns and labels:
[1] = molecular target: T1, insulin receptors of isolated rat adipocytes (Rattus norvegicus, UniProt P15127); assay: Binding affinity to insulin receptors of isolated rat adipocytes; details: relative to semisynthetic human insulin, potency set to 100%
T1 construct: endogenous in cells; host or cells: isolated rat adipocytes
Method: (§1) The biological activity in vitro was determined by measuring the binding affinity to the insulin receptors of isolated rat adipocytes and hepatocytes essentially as described in J. Gliemann, S. Gammeltoft: Diabetologia 10, 105-113 (1974).

[2] = molecular target: insulin receptors of isolated rat hepatocytes (Rattus norvegicus, UniProt P15127)
Chain of insulin receptors of isolated rat hepatocytes (P15127 27-759 limits assumed): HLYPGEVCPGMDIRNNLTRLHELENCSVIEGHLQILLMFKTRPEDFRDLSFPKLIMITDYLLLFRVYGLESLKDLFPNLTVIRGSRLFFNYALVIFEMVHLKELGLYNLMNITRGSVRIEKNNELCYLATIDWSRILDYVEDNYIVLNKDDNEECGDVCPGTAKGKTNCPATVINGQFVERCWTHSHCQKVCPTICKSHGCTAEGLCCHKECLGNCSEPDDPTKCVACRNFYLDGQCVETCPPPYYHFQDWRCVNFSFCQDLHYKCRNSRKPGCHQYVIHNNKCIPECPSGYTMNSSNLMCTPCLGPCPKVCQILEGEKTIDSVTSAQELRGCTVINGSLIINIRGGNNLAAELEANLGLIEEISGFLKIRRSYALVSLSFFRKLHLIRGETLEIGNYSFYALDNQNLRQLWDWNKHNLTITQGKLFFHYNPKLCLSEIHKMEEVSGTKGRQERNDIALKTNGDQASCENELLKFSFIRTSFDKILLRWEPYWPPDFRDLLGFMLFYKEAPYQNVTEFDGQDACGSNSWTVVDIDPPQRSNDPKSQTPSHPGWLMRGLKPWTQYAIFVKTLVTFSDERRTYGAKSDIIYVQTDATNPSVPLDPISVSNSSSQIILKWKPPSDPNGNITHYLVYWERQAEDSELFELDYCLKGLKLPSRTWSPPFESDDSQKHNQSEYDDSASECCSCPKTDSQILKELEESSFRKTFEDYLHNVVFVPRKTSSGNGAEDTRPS
Chain of insulin receptors of isolated rat hepatocytes (P15127 764-1383 partner limits assumed): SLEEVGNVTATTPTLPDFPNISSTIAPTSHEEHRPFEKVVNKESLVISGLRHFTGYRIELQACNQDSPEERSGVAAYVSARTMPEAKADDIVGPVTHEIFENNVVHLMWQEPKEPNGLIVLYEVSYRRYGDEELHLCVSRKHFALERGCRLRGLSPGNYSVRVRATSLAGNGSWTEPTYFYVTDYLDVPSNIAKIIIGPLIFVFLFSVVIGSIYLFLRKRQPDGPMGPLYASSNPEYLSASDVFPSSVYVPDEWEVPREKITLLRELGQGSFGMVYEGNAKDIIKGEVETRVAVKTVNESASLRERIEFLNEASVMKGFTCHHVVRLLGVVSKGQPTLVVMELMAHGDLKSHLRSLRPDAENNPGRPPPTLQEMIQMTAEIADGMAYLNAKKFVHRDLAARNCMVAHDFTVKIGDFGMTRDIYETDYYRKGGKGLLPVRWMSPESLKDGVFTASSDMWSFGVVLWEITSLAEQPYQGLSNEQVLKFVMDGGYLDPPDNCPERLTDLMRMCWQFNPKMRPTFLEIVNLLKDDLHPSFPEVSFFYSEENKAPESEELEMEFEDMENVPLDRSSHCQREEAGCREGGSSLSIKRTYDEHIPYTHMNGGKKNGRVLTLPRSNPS
Method: as §1

T1 sequence (P15127 27-759 limits assumed): as the sequence (P15127 27-759 limits assumed) above
T1 sequence (P15127 764-1383 partner limits assumed): as the sequence (P15127 764-1383 partner limits assumed) above

## [His^B25 ]-human insulin
[1]
  Biological activity in vitro (binding affinity), Adipocytes: 150%
[2]
  Biological activity in vitro (binding affinity), Hepatocytes: 142%

## [His^B25, Asp^B28 ]-des[Thr^B30 ]-human insulin
[1]
  Biological activity in vitro (binding affinity), Adipocytes: 130%
[2]
  Biological activity in vitro (binding affinity), Hepatocytes: 135%

## [Tyr^B25 ]-human insulin
[1]
  Biological activity in vitro (binding affinity), Adipocytes: 356%
[2]
  Biological activity in vitro (binding affinity), Hepatocytes: 222%

## [Tyr^B25, Asp^B28 ]-human insulin
[1]
  Biological activity in vitro (binding affinity), Adipocytes: 201%
[2]
  Biological activity in vitro (binding affinity), Hepatocytes: 138%
